ChEMBL document CHEMBL4325925, “Privileged Structures and Polypharmacology within and between Protein Families” (ACS Med Chem Lett, 2018)

Assays:
[1] = molecular target: T1, Pirin (Homo sapiens, UniProt O00625); test: Displacement of 6-amino-9-(2-((4-((2-((6-((5-(2,3-dihydrobenzo[b][1,4]dioxine-6-carboxamido)-2-methylphenyl)carbamoyl)quinolin-2-yl)oxy)ethyl)amino)-4-oxobutyl)(methyl)carbamoyl)phenyl)-3-imino-3H-xanthene-4,5-disulfonic acid from pirin (unknown origin) by fluorescence polarization assay
T1 sequence (O00625 whole entry): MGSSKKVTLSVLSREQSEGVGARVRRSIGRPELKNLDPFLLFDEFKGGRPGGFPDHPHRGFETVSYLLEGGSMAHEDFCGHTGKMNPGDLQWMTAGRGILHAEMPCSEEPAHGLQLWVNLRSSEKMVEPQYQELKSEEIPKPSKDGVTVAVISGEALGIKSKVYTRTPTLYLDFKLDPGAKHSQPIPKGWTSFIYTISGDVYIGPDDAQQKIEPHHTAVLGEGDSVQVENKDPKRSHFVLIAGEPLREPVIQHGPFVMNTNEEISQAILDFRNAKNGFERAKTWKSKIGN

[2] = molecular target: Serine/threonine-protein kinase B-raf (Homo sapiens, UniProt P15056, V600E); test: Inhibition of recombinant human GST-tagged BRAF V600E mutant expressed in baculovirus expression system
[3] = molecular target: Serine/threonine-protein kinase B-raf (Homo sapiens, UniProt P15056); test: Inhibition of recombinant human full length GST-tagged BRAF expressed in baculovirus expression system
[4] = molecular target: T2, Serine/threonine-protein kinase TAO1 (Homo sapiens, UniProt Q7L7X3); test: Inhibition recombinant human TAOK1 (1 to 356 residues) after 5 mins in presence of [33P] ATP by Topcount method
T2 sequence (Q7L7X3 whole entry): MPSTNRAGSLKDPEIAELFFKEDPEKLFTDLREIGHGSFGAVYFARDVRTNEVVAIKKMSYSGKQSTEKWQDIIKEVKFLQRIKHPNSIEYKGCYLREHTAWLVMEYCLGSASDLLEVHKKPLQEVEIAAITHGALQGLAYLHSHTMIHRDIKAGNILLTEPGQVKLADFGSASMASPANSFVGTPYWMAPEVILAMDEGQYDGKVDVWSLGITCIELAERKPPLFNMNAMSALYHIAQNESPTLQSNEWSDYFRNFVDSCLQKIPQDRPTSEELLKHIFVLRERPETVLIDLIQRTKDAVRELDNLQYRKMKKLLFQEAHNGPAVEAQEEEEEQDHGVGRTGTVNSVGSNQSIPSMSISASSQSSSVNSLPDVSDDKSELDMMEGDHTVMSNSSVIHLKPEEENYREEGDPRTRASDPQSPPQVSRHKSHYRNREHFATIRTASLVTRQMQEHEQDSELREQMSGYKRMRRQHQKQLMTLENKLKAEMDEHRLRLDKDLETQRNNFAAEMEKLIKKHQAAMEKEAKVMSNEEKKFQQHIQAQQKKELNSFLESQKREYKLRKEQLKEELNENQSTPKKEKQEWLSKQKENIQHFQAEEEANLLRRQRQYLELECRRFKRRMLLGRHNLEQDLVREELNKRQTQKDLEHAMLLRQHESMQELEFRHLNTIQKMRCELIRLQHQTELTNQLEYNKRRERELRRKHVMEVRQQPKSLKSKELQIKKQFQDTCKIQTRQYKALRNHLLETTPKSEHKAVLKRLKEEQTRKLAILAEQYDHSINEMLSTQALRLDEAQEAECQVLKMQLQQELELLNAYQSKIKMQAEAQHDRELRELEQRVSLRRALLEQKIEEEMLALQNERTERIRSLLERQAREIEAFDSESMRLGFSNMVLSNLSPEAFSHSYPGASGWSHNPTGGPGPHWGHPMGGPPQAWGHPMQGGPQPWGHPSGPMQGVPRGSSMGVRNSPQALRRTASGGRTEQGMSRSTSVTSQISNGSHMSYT

[5] = molecular target: Homeodomain-interacting protein kinase 2 (Homo sapiens, UniProt Q9H2X6); test: Inhibition recombinant human HIPK2 (165 to 564 residues) after 5 mins in presence of [33P] ATP by Topcount method
Homeodomain-interacting protein kinase 2, sequence (Q9H2X6 whole entry, the tested form may be a part): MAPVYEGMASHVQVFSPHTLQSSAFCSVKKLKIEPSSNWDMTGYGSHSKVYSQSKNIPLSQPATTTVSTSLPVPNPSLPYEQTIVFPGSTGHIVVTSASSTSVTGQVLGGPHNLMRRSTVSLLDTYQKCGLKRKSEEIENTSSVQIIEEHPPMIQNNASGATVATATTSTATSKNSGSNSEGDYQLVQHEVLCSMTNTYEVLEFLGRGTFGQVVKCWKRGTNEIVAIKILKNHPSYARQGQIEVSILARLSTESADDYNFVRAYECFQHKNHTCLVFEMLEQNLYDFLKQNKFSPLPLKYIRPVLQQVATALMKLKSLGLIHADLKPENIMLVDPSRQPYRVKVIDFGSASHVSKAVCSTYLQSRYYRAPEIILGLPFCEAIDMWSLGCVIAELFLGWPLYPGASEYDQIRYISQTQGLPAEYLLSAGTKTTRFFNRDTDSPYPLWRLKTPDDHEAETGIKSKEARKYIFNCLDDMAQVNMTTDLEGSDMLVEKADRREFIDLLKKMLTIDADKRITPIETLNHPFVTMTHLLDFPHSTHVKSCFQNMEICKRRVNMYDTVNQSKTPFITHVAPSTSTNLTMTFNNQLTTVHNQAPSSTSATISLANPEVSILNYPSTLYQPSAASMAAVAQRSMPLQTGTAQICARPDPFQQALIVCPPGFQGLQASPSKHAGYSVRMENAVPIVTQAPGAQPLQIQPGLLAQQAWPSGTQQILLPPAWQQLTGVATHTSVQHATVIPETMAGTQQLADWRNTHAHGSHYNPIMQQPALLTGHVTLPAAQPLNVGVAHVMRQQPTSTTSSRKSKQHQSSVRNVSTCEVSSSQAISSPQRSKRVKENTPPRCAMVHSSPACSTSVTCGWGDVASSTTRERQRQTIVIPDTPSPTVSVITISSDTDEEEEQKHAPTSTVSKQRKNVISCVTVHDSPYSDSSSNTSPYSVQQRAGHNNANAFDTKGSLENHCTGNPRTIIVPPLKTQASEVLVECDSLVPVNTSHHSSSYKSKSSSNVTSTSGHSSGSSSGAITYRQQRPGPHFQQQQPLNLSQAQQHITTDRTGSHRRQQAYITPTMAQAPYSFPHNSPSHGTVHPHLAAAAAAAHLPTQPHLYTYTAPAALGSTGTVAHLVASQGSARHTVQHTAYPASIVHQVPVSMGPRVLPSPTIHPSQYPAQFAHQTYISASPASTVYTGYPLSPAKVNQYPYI

Serine/threonine-protein kinase B-raf (Homo sapiens, UniProt P15056), sequence (P15056 whole entry, the tested form may be a part): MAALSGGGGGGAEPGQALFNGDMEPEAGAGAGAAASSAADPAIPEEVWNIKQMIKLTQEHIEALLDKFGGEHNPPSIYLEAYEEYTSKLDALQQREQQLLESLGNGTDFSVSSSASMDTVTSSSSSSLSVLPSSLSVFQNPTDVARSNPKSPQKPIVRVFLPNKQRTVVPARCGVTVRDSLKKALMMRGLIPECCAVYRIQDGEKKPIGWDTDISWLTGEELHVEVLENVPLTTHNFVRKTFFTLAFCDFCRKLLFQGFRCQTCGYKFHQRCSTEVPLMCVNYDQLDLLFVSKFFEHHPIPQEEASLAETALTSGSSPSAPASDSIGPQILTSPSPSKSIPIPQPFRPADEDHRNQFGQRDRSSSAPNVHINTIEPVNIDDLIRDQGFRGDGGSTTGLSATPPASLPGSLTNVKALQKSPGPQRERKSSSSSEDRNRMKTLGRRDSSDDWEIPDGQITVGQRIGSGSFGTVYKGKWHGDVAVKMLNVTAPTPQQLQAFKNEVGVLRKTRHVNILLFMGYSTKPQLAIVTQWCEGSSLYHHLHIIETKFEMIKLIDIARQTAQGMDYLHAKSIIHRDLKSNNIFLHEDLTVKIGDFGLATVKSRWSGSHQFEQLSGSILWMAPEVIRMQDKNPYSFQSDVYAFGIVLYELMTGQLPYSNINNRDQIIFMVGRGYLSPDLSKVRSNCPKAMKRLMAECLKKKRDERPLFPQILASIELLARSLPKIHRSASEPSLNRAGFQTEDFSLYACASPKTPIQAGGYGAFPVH
Serine/threonine-protein kinase B-raf (Homo sapiens, UniProt P15056, V600E), sequence (P15056 2-766 V600E limits assumed): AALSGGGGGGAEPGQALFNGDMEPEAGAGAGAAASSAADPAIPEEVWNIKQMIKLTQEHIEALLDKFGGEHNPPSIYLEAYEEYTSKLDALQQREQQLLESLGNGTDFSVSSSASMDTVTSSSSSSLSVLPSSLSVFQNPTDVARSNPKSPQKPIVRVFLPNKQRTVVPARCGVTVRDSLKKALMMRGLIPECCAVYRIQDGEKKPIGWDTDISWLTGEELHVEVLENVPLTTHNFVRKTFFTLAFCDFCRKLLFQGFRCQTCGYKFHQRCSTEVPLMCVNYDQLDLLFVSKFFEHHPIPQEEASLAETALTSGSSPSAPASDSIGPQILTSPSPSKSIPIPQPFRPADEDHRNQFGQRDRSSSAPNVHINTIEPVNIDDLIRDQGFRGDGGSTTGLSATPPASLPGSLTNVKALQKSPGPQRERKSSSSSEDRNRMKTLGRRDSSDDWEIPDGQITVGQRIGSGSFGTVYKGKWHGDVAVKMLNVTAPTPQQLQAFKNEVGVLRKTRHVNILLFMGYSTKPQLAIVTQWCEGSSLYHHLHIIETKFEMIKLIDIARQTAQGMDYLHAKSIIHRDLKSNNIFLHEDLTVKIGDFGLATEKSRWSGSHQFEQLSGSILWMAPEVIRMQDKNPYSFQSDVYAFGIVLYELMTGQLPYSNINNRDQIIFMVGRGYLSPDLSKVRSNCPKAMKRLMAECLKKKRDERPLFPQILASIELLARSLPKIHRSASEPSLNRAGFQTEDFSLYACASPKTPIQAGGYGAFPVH

IC50 [1] | SMILES | other results
> 10000 nM | Cn1c(Nc2ccc(C(F)(F)F)cc2)nc2cc(Oc3ccnc(-c4ncc(C(F)(F)F)[nH]4)c3)ccc21 [RAF-265] | –
> 10000 nM | OCCn1cc(-c2ccc3c(c2)CC/C3=N\O)c(-c2ccncc2)n1 | –
> 10000 nM | Cc1ccc(NC(=O)c2cccc(C(C)(C)C#N)c2)cc1Nc1ccc2ncn(C)c(=O)c2c1 | –

The next lines start with the compound.

SMILES | IC50 [1] | other results
CC(C)(C)c1nc(-c2cccc(NS(=O)(=O)c3c(F)cccc3F)c2F)c(-c2ccnc(N)n2)s1 [DABRAFENIB] | > 10000 nM | –
N#Cc1c(Oc2ccc(F)c(NC(=O)Cc3cccc(C(F)(F)F)c3)c2)ccc2nc(NC(=O)C3CC3)sc12 | > 10000 nM | IC50 [2]: 2 nM; IC50 [3]: 8 nM
c1cnc2ncn(-c3cc(Nc4ccc(OCCN5CCCCC5)cn4)ncn3)c2c1 | – | IC50 [4]: 490 nM; IC50 [5]: 30 nM
CC(C)(C)N1CCN(Cc2ccc3cc(C(=O)Nc4cc(NC(=O)c5ccc6c(c5)OCCO6)ccc4Cl)ccc3n2)CC1 | 33 nM | IC50 [3]: > 10000 nM
CCCS(=O)(=O)Nc1ccc(F)c(C(=O)c2c[nH]c3ncc(Cl)cc23)c1F [PLX-4720] | 670 nM | –
